{
  "source": "patent US20060122105A1",
  "about": "“Method of improing the growth performance of an animal” (priority 2001, published 2006)",
  "key": {"[1]": {"system": "Actinobacillus pleuropneumoniae (App)", "assay": "App challenge of pigs, prophylactic recombinant IL-1ra, plasmid IL-1ra or flunix (Example 5)", "format": "in vivo", "conditions": "day 13 after challenge compared with pre-challenge levels; FIG. 35"}, "[2]": {"system": "Actinobacillus pleuropneumoniae (App)", "assay": "App challenge of pigs, prophylactic recombinant IL-1ra, plasmid IL-1ra or flunix (Example 5)", "format": "in vivo", "parameters": "improvements in weight gain over saline controls / reduction in weight gain compared to saline controls / reduction in clinical symptoms compared to saline / reduction of pleurisy compared to saline treated controls / reduction in affected lung mass compared to saline treated controls: concentration or dose not given beside the values", "experimental": "Male pigs, with a mean starting weight of 52 kg, were allocated to 5 treatment groups as outlined in Table 6. Pigs were housed in group pens, with each pen containing a replicate from each of the treatment groups. The starting weights of each treatment group and each pen were equal prior to the start of the trial. Pigs were provided with pelleted feed and water ad libitum.\nRecombinant IL-1ra and saline-were administered as 1 ml doses, given subcutaneously behind the ear. Plasmids were administered in 1 ml doses, given intramuscularly in the hind-leg. Flunix was administered as a 2 ml dose according to the manufacturer's instructions, and delivered intramuscularly in the neck. The timetable of administration is outlined in Table 6 below.\nPrior to challenge, pigs were treated with recombinant cytokines, flunix or plasmids as described Table 7. Pigs were anaesthetised and infected intratracheally with 7.5×10^5 pfu App on day 0.\nBlood was sampled from pigs by venipuncture at 0, 24 h and 14 days post-challenge. Blood was assayed for immunological parameters as previously described. Pigs were weighed weekly from delivery of plasmids and for 2 weeks after challenge.\nAt the conclusion of the trial, pigs were euthanased and the lungs removed for post-mortem examination. Lungs were scored for pleurisy from 0-5 (FIGS. 39 and 40) and the degree of pleuropneumonia was determined by weighing affected lung and expressed as a percentage of total lung weight (FIGS. 41 and 42). Pigs treated with flunix and IL-1ra had less pleurisy than the saline controls (FIG. 39)."}},
  "data": [
    {"smiles": "Cc1c(Nc2ncccc2C(=O)O)cccc1C(F)(F)F", "note": "[flunix, reference compound]", "values": [
      {"measurement": "levels of TNFα protein in the serum", "setting": "[1]", "value": "failed to inhibit the production of TNFα"},
      {"measurement": "reduction in weight gain compared to saline controls", "setting": "[2]; 14d App challenge, FIG. 33", "value": 84.6, "unit": "%"},
      {"measurement": "production of IL-6 (mRNA in peripheral blood)", "setting": "[2]; after App challenge, compared with saline treated controls, FIG. 36", "value": "reduce the production of IL-6 only"},
      {"measurement": "growth during the week of challenge", "setting": "[2]; first week after App challenge, FIG. 30", "value": "weight loss"},
      {"measurement": "reduction in affected lung mass compared to saline treated controls", "setting": "[2]; percentage of lung affected by App lesions, FIG. 42", "value": 64.1, "unit": "%"},
      {"measurement": "reduction of pleurisy compared to saline treated controls", "setting": "[2]; pleurisy score 0-5 at necropsy, FIG. 40", "value": 55.6, "unit": "%"}
    ]}
  ]
}
